Experimental data from US20060069132A1, “Azolecarboxamide herbicides” (priority 2004, published 2006).

Columns and labels:
barnyardgrass [1] = assay: Test B flooded paddy test; format: in vivo, Echinochloa crus-galli; settings: 1000 g ai/ha, scale 0 to 100 (0 no effect, 100 complete control)
How it was run: (§1)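 Paddy species grown to the 2-leaf stage under flooding; blackgrass sprayed postemergence at 2–18 cm (1- to 4-leaf stage). Plants kept in a greenhouse for 13 to 15 days, then visually rated against controls on 0 (no effect) to 100 (complete control).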

wild oat = assay: Test B postemergence herbicide test; format: in vivo, Avena fatua; settings: scale 0 (no effect) to 100 (complete control)
How it was run: (§2)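 Greenhouse test; postemergence application to plants at 1–4 leaves (2–18 cm); paddy species at 2 leaves; evaluated visually vs controls at 13–15 days; scale 0–100 (100 = complete control).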

wheat = assay: Test B postemergence herbicide test; format: in vivo, Triticum aestivum; set-up: key to Wheat plant response rating: 0 = no effect, 100 = complete control
How it was run: as §2

pigweed = assay: Test B pre-/postemergence herbicide test; format: in vivo, Amaranthus retroflexus; settings: for Pigweed plant response rating: scale 0 (no effect) to 100 (complete control)
How it was run: (§3)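 Pre: seeds sown, then sprayed. Post: 1–4-leaf plants (2–18 cm) sprayed at the same time. Paddy: flooded, treated at 2-leaf stage. Formulation: non-phytotoxic solvent with surfactant. Greenhouse 13–15 days; visual 0–100 score relative to controls.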

ducksalad = assay: Test B flooded paddy test; format: in vivo, Heteranthera limosa; settings: 1000 g ai/ha, scale 0 to 100 (0 no effect, 100 complete control)
How it was run: as §1

cocklebur = assay: Test B pre-/postemergence herbicide test; format: in vivo, Xanthium strumarium; settings: for Plant response rating (0 to 100 scale), Cocklebur: 0 is no effect, preemergence; for Cocklebur plant response rating: postemergence
How it was run: (§4)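 Test chemicals in a non-phytotoxic solvent mixture with surfactant were applied preemergence to seeded species and postemergence to plants 2-18 cm tall (1- to 4-leaf stage); rice and barnyardgrass were also tested in a flooded paddy at the 2-leaf stage. Visual rating versus controls after 13-15 days in greenhouse, scale 0 (no effect) to 100 (complete control).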

barnyardgrass [2] = assay: Test B pre-/postemergence herbicide test; format: in vivo, Echinochloa crus-galli; settings: for Plant response rating (0 to 100 scale), Barnyardgrass: 0 is no effect, preemergence; for Barnyardgrass plant response rating: postemergence
How it was run: as §4

large crabgrass = assay: Test B pre-/postemergence herbicide test; format: in vivo, Digitaria sanguinalis; settings: for Plant response rating (0 to 100 scale), Crabgrass, Large: 0 is no effect, preemergence; for Crabgrass, Large plant response rating: postemergence
How it was run: as §3

rice = assay: Test B flooded paddy test; format: in vivo, Oryza sativa; settings: 1000 g ai/ha, scale 0 to 100 (0 no effect, 100 complete control)
How it was run: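 Plants grow to 1- to 4-leaf stage (2–18 cm) for postemergence spraying, or to 2-leaf stage for the paddy test. Formulated compound is applied. Greenhouse holding lasts 13–15 days. Response is scored visually relative to controls, 0 no effect to 100 complete control; a dash means no result.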

velvetleaf = assay: Test B pre-/postemergence herbicide test; format: in vivo, Abutilon theophrasti; settings: for Plant response rating (0 to 100 scale), Velvetleaf: 0 is no effect, 100 is complete control, preemergence; for Velvetleaf plant response rating: scale 0 (no effect) to 100 (complete control)
How it was run: as §3

giant foxtail = assay: Test B pre-/postemergence herbicide test; format: in vivo, Setaria faberi; settings: for Plant response rating (0 to 100 scale), Foxtail, Giant: 0 is no effect, preemergence; for Foxtail, Giant plant response rating: postemergence
How it was run: as §3

[3] = tested on: small flower umbrella sedge; assay: Test B flooded paddy test; format: in vivo, Cyperus difformis; settings: 1000 g ai/ha, scale 0 to 100 (0 no effect, 100 complete control)
How it was run: as §1

corn = assay: Test B pre-/postemergence herbicide test; format: in vivo, Zea mays; settings: for Plant response rating (0 to 100 scale), Corn: 0 is no effect, preemergence; for Corn plant response rating: postemergence
How it was run: as §3

blackgrass = assay: Test B postemergence herbicide test; format: in vivo, Alopecurus myosuroides; settings: postemergence
How it was run: as §1

Surinam grass = assay: Test B pre-/postemergence herbicide test; format: in vivo, Urochloa decumbens; settings: for Plant response rating (0 to 100 scale), Surinam Grass: 0 is no effect, 100 is complete control, preemergence; for Surinam Grass plant response rating: scale 0 (no effect) to 100 (complete control)
How it was run: as §3

[4] = 125 g ai/ha, visual rating, postemergence
[5] = 125 g ai/ha, visual rating, scale 0 (no effect) to 100 (complete control), postemergence
[6] = 500 g ai/ha, scale 0 to 100, 0 no effect, 100 complete control, preemergence
[7] = Postemergence, 500 g ai/ha, scale 0 (no effect) to 100 (complete control)
[8] = 125 g ai/ha, 100 is complete control
[9] = 125 g ai/ha, visual rating, scale 0 (no effect) to 100 (complete control)
[10] = 500 g ai/ha, scale 0 to 100, 0 is no effect, 100 is complete control

Compound	Barnyardgrass plant response rating (barnyardgrass [1])	Oat, Wild plant response rating (wild oat; [4])	Oat, Wild plant response rating (wild oat; Postemergence, 500 g ai/ha)	Wheat plant response rating (wheat; [5])	Wheat plant response rating (wheat; [6])	Wheat plant response rating (wheat; [7])	Pigweed plant response rating (pigweed; [4])	Pigweed plant response rating (pigweed; Postemergence, 500 g ai/ha)	Ducksalad plant response rating (ducksalad)	Plant response rating (0 to 100 scale), Cocklebur (cocklebur; [8])	Cocklebur plant response rating (cocklebur; [9])	Cocklebur plant response rating (cocklebur; [10])	Plant response rating (0 to 100 scale), Barnyardgrass (barnyardgrass [2]; [8])	Barnyardgrass plant response rating (barnyardgrass [2]; [9])	Barnyardgrass plant response rating (barnyardgrass [2]; [10])	Plant response rating (0 to 100 scale), Crabgrass, Large (large crabgrass; [8])	Crabgrass, Large plant response rating (large crabgrass; [9])	Crabgrass, Large plant response rating (large crabgrass; [10])	Rice plant response rating (rice)	Plant response rating (0 to 100 scale), Velvetleaf (velvetleaf; 125 g ai/ha)	further results
CCc1nn(C(C)(C)CC)nc1C(=O)Nc1cccc(C(=O)N(C)C)c1 [Compound 372]	90	0	30	0	90	10	40	80	90	10	20	30	80	10	60	80	10	20	90	10	Velvetleaf plant response rating (velvetleaf; [4]): 10; Velvetleaf plant response rating (velvetleaf; Postemergence, 500 g ai/ha): 30; Plant response rating (0 to 100 scale), Foxtail, Giant (giant foxtail; [8]): 60; Foxtail, Giant plant response rating (giant foxtail; [9]): 30; Foxtail, Giant plant response rating (giant foxtail; [10]): 50; Sedge, Umbrella plant response rating [3]: 90; Plant response rating (0 to 100 scale), Corn (corn; [8]): 60; Corn plant response rating (corn; [9]): 20; Corn plant response rating (corn; [10]): 60; Blackgrass plant response rating (blackgrass; [9]): 10; Blackgrass plant response rating (blackgrass; [10]): 30; Plant response rating (0 to 100 scale), Surinam Grass (Surinam grass; 125 g ai/ha): 50; Surinam Grass plant response rating (Surinam grass; [4]): 10; Surinam Grass plant response rating (Surinam grass; Postemergence, 500 g ai/ha): 10
CCNC(=O)c1cccc(NC(=O)c2nn(C(C)(C)CC)nc2CC)c1 [Compound 376]	70	20	40	10	90	20	70	90	90	0	20	30	80	10	40	80	10	50	60	10	Plant response rating (0 to 100 scale), Pigweed (pigweed; 125 g ai/ha, 0 is no effect, 100 is complete control, preemergence): 100; Velvetleaf plant response rating (velvetleaf; [4]): 20; Velvetleaf plant response rating (velvetleaf; Postemergence, 500 g ai/ha): 40; Plant response rating (0 to 100 scale), Foxtail, Giant (giant foxtail; [8]): 70; Foxtail, Giant plant response rating (giant foxtail; [9]): 30; Foxtail, Giant plant response rating (giant foxtail; [10]): 60; Sedge, Umbrella plant response rating [3]: 80; Plant response rating (0 to 100 scale), Corn (corn; [8]): 40; Corn plant response rating (corn; [9]): 10; Corn plant response rating (corn; [10]): 30; Blackgrass plant response rating (blackgrass; [9]): 10; Blackgrass plant response rating (blackgrass; [10]): 40; Plant response rating (0 to 100 scale), Surinam Grass (Surinam grass; 125 g ai/ha): 40; Surinam Grass plant response rating (Surinam grass; [4]): 10; Surinam Grass plant response rating (Surinam grass; Postemergence, 500 g ai/ha): 20
